Laboratory results published in PubChem BioAssay (NCI).
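Tested at 5 concentrations; 48 h exposure; 96-well plates; endpoints linearly interpolated, else capped at highest concentration. GI50: concentration for 50% inhibition of growth. Definition used: TGI = concentration required for complete inhibition of growth.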

Tests used:
Assay in all cases: growth of human tumour cells (NCI), 48 h
[1] = system: 786-0 renal
[2] = system: A498 renal
[3] = system: A549 NSCLC
[4] = system: ACHN renal
[5] = system: BT-549 breast
[6] = system: CAKI-1 renal
[7] = system: CCRF-CEM leukemia
[8] = system: COLO 205 colon
[9] = system: DU-145 prostate
[10] = system: EKVX NSCLC
[11] = system: HCC-2998 colon
[12] = system: HCT-116 colon
[13] = system: HCT-15 colon
[14] = system: HL-60(TB) leukemia
[15] = system: HOP-62 NSCLC
[16] = system: HOP-92 NSCLC
[17] = system: HS 578T breast
[18] = system: HT29 colon
[19] = system: IGROV1 ovarian
[20] = system: K-562 leukemia
[21] = system: KM12 colon
[22] = system: LOX IMVI melanoma
[23] = system: M14 melanoma
[24] = system: MALME-3M melanoma
[25] = system: MCF7 breast
[26] = system: MDA-MB-231 breast
[27] = system: MDA-MB-435
[28] = system: MDA-MB-468 breast
[29] = system: MOLT-4 leukemia
[30] = system: NCI-H226 lung
[31] = system: NCI-H23 lung
[32] = system: NCI-H460 lung
[33] = system: NCI-H522 lung
[34] = system: NCI/ADR-RES ovarian
[35] = system: OVCAR-3 ovarian
[36] = system: OVCAR-4 ovarian
[37] = system: OVCAR-5 ovarian
[38] = system: OVCAR-8 ovarian
[39] = system: PC-3 prostate
[40] = system: RPMI-8226 leukemia
[41] = system: RXF 393 renal
[42] = system: SF-268 CNS
[43] = system: SF-295 CNS
[44] = system: SF-539 CNS
[45] = system: SK-MEL-2 melanoma
[46] = system: SK-MEL-28 melanoma
[47] = system: SK-MEL-5 melanoma
[48] = system: SK-OV-3 ovarian
[49] = system: SN12C renal
[50] = system: SNB-19 CNS
[51] = system: SNB-75 CNS
[52] = system: SR leukemia
[53] = system: SW-620 colon
[54] = system: TK-10 renal
[55] = system: U251 CNS
[56] = system: UACC-257 melanoma
[57] = system: UACC-62 melanoma
[58] = system: UO-31 renal
[59] = system: T-47D breast

OCCNc1oc(-c2ccccc2)nc1[P+](c1ccccc1)(c1ccccc1)c1ccccc1
GI50 [1]: 13.2 µM
TGI [1]: 29.8 µM
GI50 [2]: 15.4 µM
TGI [2]: 48.2 µM
GI50 [3]: 18.5 µM
TGI [3]: > 100 µM
GI50 [4]: 18.8 µM
TGI [4]: 85.1 µM
GI50 [5]: 2.51 µM
TGI [5]: 7.88 µM
GI50 [6]: 11.5 µM
TGI [6]: 43.1 µM
GI50 [7]: 3.07 µM
TGI [7]: 19.9 µM
GI50 [8]: 2.14 µM
TGI [8]: 7.86 µM
GI50 [9]: 6.1 µM
TGI [9]: 21.3 µM
GI50 [10]: 5.1 µM
TGI [10]: 28.3 µM
GI50 [11]: 3.3 µM
TGI [11]: 11.7 µM
GI50 [12]: 4.8 µM
TGI [12]: 35.1 µM
GI50 [13]: 29.8 µM
TGI [13]: > 100 µM
GI50 [14]: 1.57 µM
TGI [14]: 5.33 µM
GI50 [15]: 10 µM
TGI [15]: 34.4 µM
GI50 [16]: 1.35 µM
TGI [16]: 6.73 µM
GI50 [17]: 3.21 µM
TGI [17]: 13.3 µM
GI50 [18]: 3.04 µM
TGI [18]: 17.5 µM
GI50 [19]: 2.57 µM
TGI [19]: 8.53 µM
GI50 [20]: 2.5 µM
TGI [20]: 20.7 µM
GI50 [21]: 3.21 µM
TGI [21]: 11.2 µM
GI50 [22]: 3.93 µM
TGI [22]: 14.6 µM
GI50 [23]: 4.4 µM
TGI [23]: 20.2 µM
GI50 [24]: 1.95 µM
TGI [24]: 6.52 µM
GI50 [25]: 2.69 µM
TGI [25]: 12.5 µM
GI50 [26]: 1.87 µM
TGI [26]: 5.2 µM
GI50 [27]: 2.99 µM
TGI [27]: 11.3 µM
GI50 [28]: 1.08 µM
TGI [28]: 4.35 µM
GI50 [29]: 4.43 µM
TGI [29]: 35.1 µM
GI50 [30]: 4.05 µM
TGI [30]: 24.5 µM
GI50 [31]: 4.3 µM
TGI [31]: 23.8 µM
GI50 [32]: 3.29 µM
TGI [32]: 13.6 µM
GI50 [33]: 2.15 µM
TGI [33]: 9.32 µM
GI50 [34]: > 100 µM
TGI [34]: > 100 µM
GI50 [35]: 2.35 µM
TGI [35]: 11 µM
GI50 [36]: 3.68 µM
TGI [36]: 59.4 µM
GI50 [37]: 5.06 µM
TGI [37]: 34.2 µM
GI50 [38]: 3.79 µM
TGI [38]: 15.2 µM
GI50 [39]: 2.22 µM
TGI [39]: 11.1 µM
GI50 [40]: 0.956 µM
TGI [40]: 11.7 µM
GI50 [41]: 1.86 µM
TGI [41]: 9.35 µM
GI50 [42]: 3.4 µM
TGI [42]: 16.6 µM
GI50 [43]: 10.5 µM
TGI [43]: 24.2 µM
GI50 [44]: 5.63 µM
TGI [44]: 19.5 µM
GI50 [45]: 2.58 µM
TGI [45]: 7.18 µM
GI50 [46]: 2.59 µM
TGI [46]: 11.4 µM
GI50 [47]: 1.52 µM
TGI [47]: 2.92 µM
GI50 [48]: 3.58 µM
TGI [48]: 16.6 µM
GI50 [49]: 2.82 µM
TGI [49]: 8.53 µM
GI50 [50]: 2.82 µM
TGI [50]: 10.9 µM
GI50 [51]: 1.85 µM
TGI [51]: 7.92 µM
GI50 [52]: 5.12 µM
TGI [52]: 22.8 µM
GI50 [53]: 4.74 µM
TGI [53]: 35.5 µM
GI50 [54]: 6 µM
TGI [54]: 23.1 µM
GI50 [55]: 3.28 µM
TGI [55]: 15.4 µM
GI50 [56]: 2.65 µM
TGI [56]: 8.47 µM
GI50 [57]: 1.63 µM
TGI [57]: 4.28 µM
GI50 [58]: 20.4 µM
TGI [58]: 71 µM

O=C(c1ccc(Cl)cc1)C1[C@H](c2ccccc2Br)[C@@H](c2ccccc2)NC12C(=O)Nc1ccc(Br)cc12 (stereo partly drawn)
GI50 [1]: 18.4 µM
TGI [1]: > 49 µM
GI50 [2]: > 49 µM
TGI [2]: > 49 µM
GI50 [3]: 4.84 µM
TGI [3]: > 49 µM
GI50 [4]: 10 µM
TGI [4]: > 49 µM
GI50 [5]: 5.97 µM
TGI [5]: > 49 µM
GI50 [6]: 1.88 µM
TGI [6]: > 49 µM
GI50 [7]: 5.97 µM
TGI [7]: 26.5 µM
GI50 [8]: 7.1 µM
TGI [8]: 15.5 µM
GI50 [9]: 9.36 µM
TGI [9]: > 49 µM
GI50 [10]: 13.3 µM
TGI [10]: > 49 µM
GI50 [11]: 8.14 µM
TGI [11]: 33.8 µM
GI50 [12]: 2.34 µM
TGI [12]: 11.7 µM
GI50 [13]: 7.65 µM
TGI [13]: > 49 µM
GI50 [14]: 8.67 µM
TGI [14]: 32.5 µM
GI50 [15]: 15.6 µM
TGI [15]: > 49 µM
GI50 [16]: 3.28 µM
TGI [16]: > 49 µM
GI50 [17]: 7.13 µM
TGI [17]: > 49 µM
GI50 [18]: 6.21 µM
TGI [18]: 17.2 µM
GI50 [19]: 6.71 µM
TGI [19]: > 49 µM
GI50 [20]: 6.65 µM
TGI [20]: > 49 µM
GI50 [21]: 7.46 µM
TGI [21]: 23.4 µM
GI50 [22]: 4.95 µM
TGI [22]: 13.5 µM
GI50 [23]: 7.81 µM
TGI [23]: 34.9 µM
GI50 [24]: 13.1 µM
TGI [24]: > 49 µM
GI50 [25]: 2.64 µM
TGI [25]: > 49 µM
GI50 [26]: 5.01 µM
TGI [26]: 23 µM
GI50 [27]: 7.74 µM
TGI [27]: 22.3 µM
GI50 [28]: 1.55 µM
TGI [28]: 14.2 µM
GI50 [29]: 2.4 µM
TGI [29]: 25.2 µM
GI50 [30]: 5.52 µM
TGI [30]: > 49 µM
GI50 [31]: 7.91 µM
TGI [31]: > 49 µM
GI50 [32]: 5.94 µM
TGI [32]: 15 µM
GI50 [33]: 2.44 µM
TGI [33]: 26.2 µM
GI50 [35]: 5.07 µM
TGI [35]: 29.5 µM
GI50 [36]: 10.1 µM
TGI [36]: > 49 µM
GI50 [37]: 10.2 µM
TGI [37]: > 49 µM
GI50 [38]: 11 µM
TGI [38]: > 49 µM
GI50 [39]: 2.53 µM
TGI [39]: 33.4 µM
GI50 [40]: 8.15 µM
TGI [40]: > 49 µM
GI50 [41]: 2.2 µM
TGI [41]: 23.3 µM
GI50 [42]: 3.97 µM
TGI [42]: > 49 µM
GI50 [43]: 12.2 µM
TGI [43]: > 49 µM
GI50 [44]: > 49 µM
TGI [44]: > 49 µM
GI50 [45]: 7.37 µM
TGI [45]: > 49 µM
GI50 [46]: 20.3 µM
TGI [46]: > 49 µM
GI50 [47]: 10.6 µM
TGI [47]: 38 µM
GI50 [48]: 13.6 µM
TGI [48]: > 49 µM
GI50 [49]: 5.33 µM
TGI [49]: 14 µM
GI50 [50]: 23.2 µM
TGI [50]: > 49 µM
GI50 [51]: 1.31 µM
TGI [51]: > 49 µM
GI50 [52]: 3.01 µM
TGI [52]: 18.7 µM
GI50 [53]: 9.5 µM
TGI [53]: > 49 µM
GI50 [59]: 3.88 µM
TGI [59]: > 49 µM
GI50 [54]: 20.4 µM
TGI [54]: > 49 µM
GI50 [55]: 8.25 µM
TGI [55]: 31.6 µM
GI50 [56]: 10 µM
TGI [56]: > 49 µM
GI50 [57]: 6.59 µM
TGI [57]: > 49 µM
GI50 [58]: 4.83 µM
TGI [58]: > 49 µM

CC(=O)O[C@H]1Cc2c([nH]c3ccccc23)[C@@H](c2ccc(Cl)cc2)N1C(=O)CCNC(C)(C)C
GI50 [28]: 3.18 µM
TGI [28]: 7.67 µM

O=C(CN1CCN(c2cc3c(cc2F)c(=O)c(C(=O)O)cn3C2CC2)CC1)Nc1ccc(C(=O)/C=C/c2ccccc2)cc1
GI50 [28]: 2.45 µM
TGI [28]: 23.2 µM

CCN(Cc1cccc(C)c1)c1ccc(CO)c(Cl)c1
GI50 [28]: 0.0362 µM
TGI [28]: 0.134 µM

COc1cc2cc(Oc3ccc(NC(=O)Nc4cc(C(F)(F)F)cc(C(F)(F)F)c4)cc3)c(C)nc2cc1OCCN1CCCCC1
GI50 [28]: 1.67 µM
TGI [28]: 3.32 µM

Cn1ccnc1C(=O)/C=C/c1ccc(CC(=O)Nc2cc(F)c(F)c(F)c2)cc1
GI50 [28]: 0.636 µM
TGI [28]: 1.96 µM

CCN(CC)CCn1nc2c3c(cccc3c1=O)-c1ccccc1-2
GI50 [28]: 2.22 µM
TGI [28]: 8.43 µM

CN1CCN(Cc2ccc(NC(=O)c3cncc(C#Cc4cncc5[nH]ncc45)c3)cc2C(F)(F)F)CC1
GI50 [28]: 1.08 µM
TGI [28]: 4.08 µM

CCc1cc(Nc2nccc(-c3c(-c4ccc(OC)c(C(=O)Nc5c(F)cccc5F)c4)nc4ccccn34)n2)c(OC)cc1N1CCC(N2CCN(S(C)(=O)=O)CC2)CC1
GI50 [28]: > 82.7 µM
TGI [28]: > 100 µM
